Measured values from publication PMC8287028 (Frontiers in Veterinary Science, 2021).

Tests used:
citrated whole blood = assay: Tissue-factor activated thromboelastography (TF-TEG) on citrated whole blood of dosed dogs; type: in vivo, dog
Protocol: Catheters were flushed with 0.9% saline, without heparin. […] Coagulation assays were performed on platelet-poor, citrated plasma samples by a reference laboratory (Comparative Coagulation Laboratory, Animal Health Diagnostic Center, Ithaca, NY). […] Residual, uninhibited Factor Xa cleaves the chromogenic substrate such that the inverse of the color change in the reaction mixture is proportional to the drug concentration in the test plasma. […] Assay controls, consisting of human plasma spiked with apixaban (STA Apixaban Controls, Diagnostica Stago) were analyzed before each batch of test samples to confirm assay performance. The apixaban levels in calibrators and controls are defined by the manufacturer from an internal reference assayed by HPLC-MS. […] A mechanical endpoint method (STA Compact, Diagnostica Stago) and human coagulation reagents were used to measure prothrombin time (Thromboplastin LI, Helena Diagnostics, Beaumont, TX) and activated partial thromboplastin time (Dade Actin FS, Dade Behring, Newark, DE). […] Tissue-factor (1:50,000 final dilution) activated TEG was performed using standard equipment (TEG-5000, Haemonetics, Braintree, MA) as previously reported ([35]), with assays conducted per established guidelines ([36]), with a modification to eliminate the rest time to facilitate rapid sample processing. Thromboelastography assays were conducted by experienced operators using four TEG channels and tracings terminated after maximum amplitude was established. Four values were extracted from TEG tracings: reaction time (R-time), clot formation time (K-time), clot formation angle (alpha), and maximum amplitude (MA). Pairwise comparisons between continuous variables were conducted with Wilcoxon matched-pairs signed rank test, while comparisons of more than two groups were conducted using the Friedman test with Dunn's post-hoc adjustment. Specifically, the Wilcoxon matched-pairs signed rank tests were used to compare the complete blood count and serum chemistry values between baseline and the +24 h time point. Comparisons of pharmacodynamic variables between baseline values and those at discrete sampling intervals were performed using the Friedman test with Dunn's post-hoc correction for multiple comparisons. […] Alpha was set at 0.05. Statistical analyses were performed using commercial software (Prism 9, GraphPad, La Jolla, CA).

[1] = horses, cited from earlier work
Factor Xa = settings: cited from earlier work

Which results are given for COc1ccc(-n2nc(C(N)=O)c3c2C(=O)N(c2ccc(N4CCCCC4=O)cc2)CC3)cc1 [apixaban]?
TF-TEG K-time versus baseline (citrated whole blood; IV 0.18 mg/kg, at 5 min): significantly different from baseline; TF-TEG R-time versus baseline (citrated whole blood; IV 0.18 mg/kg, at 5 min): significantly different from baseline; TF-TEG alpha angle versus baseline (citrated whole blood; IV 0.18 mg/kg, at 5 min): significantly different from baseline; TF-TEG R-time versus baseline (citrated whole blood; IV 0.18 mg/kg, at 15 min ([…])): significantly prolonged; TF-TEG tracings (citrated whole blood; PO 0.2 mg/kg): not consistently affected; TF-TEG R-time versus baseline (citrated whole blood; PO 0.2 mg/kg, at the 12-h timepoint): significantly different from baseline; plasma concentrations after oral administration ([1]; oral): did not lead to quantifiable apixaban concentrations in plasma; time by which concentrations declined below the lower limit of quantitation ([1]; single injection): ≤ 8 h; half-life [1]: 1.3 h; protein binding [1]: highly protein bound; aXa activity observed after 12 h (Factor Xa; humans receiving a single intravenous apixaban injection): 150 ng/mL; aXa activity values typically observed in human treatment trials (Factor Xa; humans): approximately 150 ng/ml
